Experimental data taken from the NIST ThermoML archive (doi:10.1021/je500422t).
± gives the expanded uncertainty stated by the source.

Key:
[1] = Liquid; for mass density: 298.2 K, 101.33 kPa, Vibrating tube method; for Normal boiling temperature: Distillation
[2] = refractive index (Na D-line) (dimensionless); details: 298.2 K; 101.33 kPa; Liquid; Standard Abbe refractometry

COC(=O)OC [dimethyl carbonate]
mass density [1]: 1061.9 ± 1 kg/m3 | Normal boiling temperature [1]: 90.08 ± 1.1 °C | refractive index [2]: 1.3685 ± 0.0004

O=CO [formic acid]
mass density [1]: 1220.04 ± 1.1 kg/m3 | Normal boiling temperature [1]: 101.2 ± 1.1 °C | refractive index [2]: 1.37144 ± 0.00039
